The results in this text go back to US20060008542A1, “Preparation containing a mixture of picrorrhiza and ginkgo for the relief of disease” (priority 2002, published 2006).

In one series the test system is neutrophil respiratory burst (PMA-stimulated neutrophils of peripheral blood). As to the kind of experiment: Dihydrorhodamine flow cytometric assay for the effect of plant extracts on neutrophil respiratory burst on peripheral blood. The class given is cell-based, human. The conditions noted are these: Homo sapiens, Neutrophil; apocynin 300 ug/ml, from calibration curve. On the procedure: 3 Dihydrorhodamine Flow Cytometric Assay for the Effect of Plant Extracts on Neutrophil Respiratory Burst on Peripheral Blood An aliquot (200 μg) of every fraction (obtained by the methods described above) was prepared for assay. The left hand column (Extract number) will be the number used to denote that fraction in subsequent studies and corresponds to the Fraction numbers (“BR0000n”) used above reduced to 1,2, etc., by removal of the “BR00000”. Neutrophils kill organisms they have ingested by exposing them to chemicals known as reactive oxygen species (eg. hydrogen peroxide and hydroxyl ions). These are generated by a process known as the neutrophil respiratory burst. […] Respiratory burst occurs when stimulated neutrophils convert molecular oxygen to oxygen radicals through the activation of NADPH-oxidase. In the dihydrorhodamine (DHR) flow cytometric assay, the respiratory burst is used to produce fluorescent molecules that can be detected by flow cytometry. […] The extent of respiratory burst product can be further quantified using the mean fluorescence intensity of the FL-1 channel (MFI). […] Any background fluorescence (as a further control) is estimated using a tube containing only blood and DHR. […]
As usually defined, the inhibition is the percentage by which the read-out fell short of the control. A higher inhibition goes with strong suppression. Regarding `COc1cc(C(C)=O)ccc1O` [Apocynin, 4-hydroxy-3-methoxyacetophenone], 300 µg/mL produced 45% inhibition.

The series is the same for the next values; noted with them: Table 4, apocynin alone.
As for `COc1cc(C(C)=O)ccc1O` [Apocynin, 4-hydroxy-3-methoxyacetophenone], the “Assay Result” value is 48.

Tested on in another series: not listed separately
Briefly: physchem.
Conditions: not given
The term logP denotes the decadic logarithm of the partition coefficient of the neutral form, usually between octanol and water. Higher therefore signals higher lipophilicity. As for `CCCCCCCCCCCCCCCCCC(O)CCCCCCCCC` (centres unmarked) [10-heptacosanol], the logP is at least 5.

In turn, `CCCCCCCCCCCCCCCCCCCC(O)CCCCCCCCC` (centres unmarked) [10-nonacosanol] registered a log partition coefficient (logP) of at least 5. Compound `CCCCCCCCCCCCCCCCC(O)CCCCCCCCCCCC` (centres unmarked) [13-nonacosanol] displayed a log partition coefficient (logP) of at least 5. The same measure, in the same setting: the value for `COc1cc(C(C)=O)ccc1O` [Apocynin, 4-hydroxy-3-methoxyacetophenone] was 1.6; that for `O=c1cc(-c2ccc(O)c(-c3c(O)cc(O)c4c(=O)cc(-c5ccc(O)cc5)oc34)c2)oc2cc(O)cc(O)c12` [amentoflavone] was at least 5; that for `COc1cc(C(C)=O)ccc1O[C@@H]1O[C@H](CO)[C@@H](O)[C@H](O)[C@H]1O` [androsin] was -1.2. On the same count and under the same terms, the value for `OCC1=C[C@@H](O)[C@@H]2C=CO[C@@H](O[C@@H]3O[C@H](CO)[C@@H](O)[C@H](O)[C@H]3O)[C@H]12` [aucubin] was at most -2; that for `COc1ccc(-c2cc(=O)c3c(O)cc(O)cc3o2)cc1-c1c(O)cc(O)c2c(=O)cc(-c3ccc(O)cc3)oc12` [bilobetin] was at least 5; that for `OC[C@H]1O[C@@H](O[C@@H]2OC=C[C@H]3[C@H](O)[C@@H]4O[C@]4(CO)[C@@H]23)[C@H](O)[C@@H](O)[C@@H]1O` [catalpol] was at most -2. For `COc1cc(O)c2c(=O)cc(-c3ccc(OC)c(-c4c(O)cc(O)c5c(=O)cc(-c6ccc(O)cc6)oc45)c3)oc2c1` [ginkgetin], the lipophilicity (logP) was at least 5. Same read-out and setting: the value for `COc1ccc(-c2cc(=O)c3c(O)cc(O)c(-c4cc(-c5cc(=O)c6c(O)cc(O)cc6o5)ccc4OC)c3o2)cc1` [isoginkgetin] was at least 5.

`CCCCCCCCCCCCCCCCCCCCCCCCCCCCC` [nonacosane] gave a log partition coefficient (logP) of at least 5. `CC[C@H](/C=C/[C@@H](C)[C@H]1CC[C@H]2[C@@H]3CC=C4C[C@@H](O)CC[C@]4(C)[C@H]3CC[C@]12C)C(C)C` [stigmasterol]: the logP is at least 5. `CCCCCCCCCCCCCCCC(=O)OCC(COC(=O)CCCCCCCCCCCCCCC)OC(=O)CCCCCCCCCCCCCCC` [tripalmitin] had a lipophilicity (logP) of at least 5. For the compound `O=C(/C=C/c1ccc(O)c(O)c1)O[C@H]1[C@@H]2C=CO[C@@H](O[C@@H]3O[C@H](CO)[C@@H](O)[C@H](O)[C@H]3O)[C@@H]2[C@@]2(CO)O[C@@H]12` [verminoside], the lipophilicity (logP) was at most -2.

Tested on in a further series: not listed separately
As to the kind of experiment: log P (Partition Ratio between Octanol/Water). The note with it: cucurbitacins present in natural Picrorrhiza kurroa.
Text: By most polar is meant a component (or Component) having log P of −2 or more negative, where P is the Partition Ratio between Octanol/Water.
The Table immediately below lists the cucurbitacins present in natural Picrorrhiza kurroa together with their log P value.
As usually defined, the log P is a log measure of how a compound divides between an organic and an aqueous phase. Consider `CC(=O)OC(C)(C)/C=C/C(=O)[C@](C)(O)[C@H]1[C@H](O)C[C@@]2(C)[C@@H]3CC=C4[C@H](C[C@H](O)C(=O)C4(C)C)[C@]3(C)C(=O)C[C@]12C` [cucurbitacin B], for which the “log P” value is 2.5 ± 0.6. For `CC(C)(O)/C=C/C(=O)[C@](C)(O)[C@H]1[C@H](O)C[C@@]2(C)[C@@H]3CC=C4[C@@H](C[C@H](O)C(=O)C4(C)C)[C@]3(C)C(=O)C[C@]12C` [cucurbitacin D], the “log P” value is 1.7 ± 0.6. On to `CC(=O)OC(C)(C)/C=C/C(=O)[C@](C)(O)[C@H]1[C@H](O)C[C@@]2(C)[C@@H]3CC=C4[C@@H](C=C(O)C(=O)C4(C)C)[C@]3(C)C(=O)C[C@]12C` [cucurbitacin E], for which the lipophilicity (log P) stood at 3.4 ± 0.6. Turning to `CC(C)(O)/C=C/C(=O)[C@](C)(O)[C@H]1[C@H](O)C[C@@]2(C)[C@@H]3CC=C4[C@@H](C[C@H](O)[C@@H](O)C4(C)C)[C@]3(C)C(=O)C[C@]12C` [cucurbitacin F], the “log P” value is 1.9 ± 0.6.

With `CC(C)(O)/C=C/C(=O)[C@](C)(O)[C@H]1[C@H](O)C[C@@]2(C)[C@@H]3CC=C4[C@@H](C=C(O)C(=O)C4(C)C)[C@]3(C)C(=O)C[C@]12C` [cucurbitacin I], the lipophilicity (log P) is given as 2.5 ± 0.5. Take `CC(C)(O)CCC(=O)[C@](C)(O)[C@H]1[C@H](O)C[C@@]2(C)[C@@H]3CC=C4[C@@H](C[C@H](O)C(=O)C4(C)C)[C@]3(C)C(=O)C[C@]12C` [cucurbitacin R]: the “log P” value was found to be 1.9 ± 0.6.
